Results on one molecule are retold here after patent publication US11708357B2, “Crystal form of pyrrolidinyl urea derivative and application thereof” (ZHANGZHOU PIEN TZE HUANG PHARMACEUTICAL CO., LTD., priority 2020, dated 2023).

Where only a bound is given, the exact number is not on record here.

One series has as its target T1, CYP2C19 (Homo sapiens, UniProt P33261).
T1 construct: from tissue; host or cells: human liver microsomes
As to the kind of experiment: Cytochrome P450 isozyme inhibitory activity test, CYP2C19. The series is classed as in vitro ADME. The conditions noted are these: liver microsomes; human liver microsome. On the procedure:
(§1) The inhibitory activities of the test compound on different subtypes of human cytochrome P450 isozymes were determined. The test compound, standard inhibitor (100× final concentration), and a mixed substrate working solution were prepared; the microsome frozen in −80° C. refrigerator was thawed. […]
On the technique in general: Microsomes from liver hold many membrane-bound enzymes, among them those of drug oxidation.

Series [1] can be described thus: Metabolic stability in rat liver microsomes. The series is classed as in vitro ADME. To be noted: pH 7.4, 0.5 mg protein/mL, read-out: Intrinsic clearance rate of liver microsomes, Rat. On the procedure:
(§2) The metabolic stability of the test compound in human and rat liver microsomes was tested.
(§3) Test compound (10 mM), Testosterone (reference compound, 10 mM), Diclofenac (reference compound, 10 mM) and Propafenone (reference compound, 10 mM).
(§4) 1. 100 mM potassium phosphate buffer (pH 7.4).
(§5) 1. Intermediate solution: 45 μL of DMSO (with 450 μL of 1:1 methanol/water) was used to dilute 5 μL of the sample for test compound or reference compound.
(§6) 2. Working solution: 450 μL of 100 mM potassium phosphate buffer was used to dilute the intermediate solution.
(§7) 10 μL of the working solution of the test compound or reference compound was added to all plates (T0, T5, T10, T20, T30, T60, and NCF60).
(§8) 680 μL of liver microsome solution was added to each well of 96-well plates, then 80 μL was added to each well of the plates, and the plates were placed at 37° C. for pre-incubation for approximately 10 minutes.
(§9) 10 μL of 100 mM potassium phosphate buffer was added to each well of the NCF60 plate.
(§10) After the pre-incubation, 90 μL NADPH regeneration system working solution was added to each well of the 96-well plates, and then 10 μL was added to each well of the plates to initiate the reaction.
(§11) Incubation for an appropriate time (such as 5, 10, 20, 30, and 60 minutes). […]
(§12) The half-life T1/2 and the intrinsic clearance rate by liver microsome Clint(mic) were calculated by the following formulas: Ct=Cij·e^−k^s^·i • when […]

A short description of series [2]: Metabolic stability in human liver microsomes. The series is classed as in vitro ADME. To be noted: pH 7.4, 0.5 mg protein/mL, read-out: Intrinsic clearance rate of liver microsomes, Human. On the procedure: as §2, §3, §4, §5, §6, §7, §8, §9, §10, §11, §12
Another series concerns the target T2, CYP3A4 (Homo sapiens, UniProt P08684).
T2 construct: from tissue; host or cells: human liver microsomes
As to the kind of experiment: Cytochrome P450 isozyme inhibitory activity test, CYP3A4. To be noted: liver microsomes; human liver microsome. The series is classed as in vitro ADME. On the procedure: as §1

For another series, the target named is T3, CYP2C9 (Homo sapiens, UniProt P11712).
T3 construct: from tissue; host or cells: human liver microsomes
T3 sequence (P11712 whole entry): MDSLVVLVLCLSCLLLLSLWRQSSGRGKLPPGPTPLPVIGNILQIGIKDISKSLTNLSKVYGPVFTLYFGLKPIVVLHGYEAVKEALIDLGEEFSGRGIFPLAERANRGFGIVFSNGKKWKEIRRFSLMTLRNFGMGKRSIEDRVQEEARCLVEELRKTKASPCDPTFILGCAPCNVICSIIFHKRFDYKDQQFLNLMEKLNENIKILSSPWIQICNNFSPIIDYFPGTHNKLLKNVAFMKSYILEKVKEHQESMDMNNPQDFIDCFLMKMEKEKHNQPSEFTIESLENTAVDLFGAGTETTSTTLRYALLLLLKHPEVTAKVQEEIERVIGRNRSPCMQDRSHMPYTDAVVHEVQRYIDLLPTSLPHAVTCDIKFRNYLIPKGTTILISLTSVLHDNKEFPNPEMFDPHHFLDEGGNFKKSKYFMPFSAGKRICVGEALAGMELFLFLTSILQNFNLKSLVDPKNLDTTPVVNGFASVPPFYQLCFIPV
As to the kind of experiment: Cytochrome P450 isozyme inhibitory activity test, CYP2C9. It counts as in vitro ADME. To be noted: liver microsomes; human liver microsome. As for the experimental part:
as §1

A short description of series [3]: In vivo pharmacokinetic study in mice after single administration. Also noted: species or system CD-1 mice. To be noted: male, CD-1, mouse, plasma. As for the experimental part:
Male CD-1 mice were used as test animals, the concentration of the compound in blood was determined after single administration to evaluate the pharmacokinetic behavior.
CD-1 mice (male, 20-40 g, 6-9 weeks, Shanghai Sippr-Bk Laboratory Animal Co., Ltd.)
The pharmacokinetic characteristics of the test compound in rodents after intravenous injection and oral administration were tested by standard protocols, in the experiment, the test compound was prepared into a clear solution or homogeneous suspension, and administered to the mice by single intravenous injection and oral administration. In the intravenous injection group, the menstruum was a certain proportion of ethanol, Cremophor EL and physiological saline solution, the mixture was vortexed to prepare 1 mg/mL clear solution, then filtered with microporous membrane for later use; in the oral administration group, the menstruum was a certain proportion of methyl cellulose solution or certain proportion of methyl cellulose and Tween 80 aqueous solution, the test compound was mixed with the menstruum, and the mixture was vortexed to prepare 10 mg/mL clear or homogeneous suspension for later use. After 2 mg/kg intravenous administration or 100 mg/kg oral administration to the mice, a certain amount of whole blood samples were collected, centrifuged at 3200 g for 10 minutes, the supernatant was separated to obtain the plasma samples, and the samples were diluted multiple times with blank plasma according to actual needs. The plasma sample was added to acetonitrile solution containing the internal standard with a volume 20 times that of the plasma sample to precipitate proteins, and then centrifuged; the supernatant was separated, and water with a volume twice that of the supernatant was added to the supernatant, which was then centrifuged again; the supernatant was collected for analysis; LC-MS/MS analysis method was used to quantitatively analyze the blood drug concentration, and Phoenix WinNonlin software (Pharsight, USA) was used to calculate the pharmacokinetic parameters, such as peak concentration, time to peak concentration, clearance rate, half-life, area under the concentration-time curve, bioavailability, etc.
Among them, C0 is the initial concentration, T1/2 is the elimination half-life, Vdss is the steady-state apparent volume of distribution, Cl is the total clearance rate, AUC0-inf is the area under the plasma drug concentration-time curve from time 0 to infinity, Cmax is the peak concentration, Tmax is the time to peak concentration.

Setting [4] is: 2 mg/kg, 2 mpk intravenous injection.
Where [5] appears, read: 100 mg/kg, 100 mpk oral administration.

T2 sequence (P08684 whole entry): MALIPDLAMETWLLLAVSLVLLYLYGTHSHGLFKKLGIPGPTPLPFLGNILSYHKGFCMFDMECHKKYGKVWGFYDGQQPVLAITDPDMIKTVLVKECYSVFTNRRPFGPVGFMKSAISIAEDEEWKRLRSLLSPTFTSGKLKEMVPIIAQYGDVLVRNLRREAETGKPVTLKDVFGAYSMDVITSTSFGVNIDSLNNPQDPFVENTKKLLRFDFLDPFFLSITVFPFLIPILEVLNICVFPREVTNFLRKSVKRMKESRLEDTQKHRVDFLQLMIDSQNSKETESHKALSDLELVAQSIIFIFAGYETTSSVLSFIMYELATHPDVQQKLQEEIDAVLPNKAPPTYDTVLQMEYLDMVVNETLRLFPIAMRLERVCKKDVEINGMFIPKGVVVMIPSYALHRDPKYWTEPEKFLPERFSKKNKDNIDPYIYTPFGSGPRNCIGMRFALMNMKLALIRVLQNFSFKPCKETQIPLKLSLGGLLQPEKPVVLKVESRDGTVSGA
T1 sequence (P33261 whole entry): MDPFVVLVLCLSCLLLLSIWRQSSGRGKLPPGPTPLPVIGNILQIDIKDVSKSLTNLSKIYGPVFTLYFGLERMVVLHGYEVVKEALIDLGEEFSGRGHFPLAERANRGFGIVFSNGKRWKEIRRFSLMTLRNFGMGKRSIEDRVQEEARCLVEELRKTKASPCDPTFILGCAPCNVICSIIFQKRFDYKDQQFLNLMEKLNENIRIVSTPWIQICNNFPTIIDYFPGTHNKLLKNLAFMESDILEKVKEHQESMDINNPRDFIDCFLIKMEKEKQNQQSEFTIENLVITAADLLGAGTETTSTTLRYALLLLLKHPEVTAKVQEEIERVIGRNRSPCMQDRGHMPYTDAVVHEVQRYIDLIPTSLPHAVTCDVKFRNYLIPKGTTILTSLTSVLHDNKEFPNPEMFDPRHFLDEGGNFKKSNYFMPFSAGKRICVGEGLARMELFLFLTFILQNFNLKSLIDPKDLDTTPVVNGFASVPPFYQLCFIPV

In turn, `COCCN1C[C@@H](n2ccc(F)c2)[C@H](NC(=O)Nc2c(C)c(-c3cnc(C4(F)COC4)nc3)nn2-c2ccccc2)C1` [Compound of formula (I)] had an IC50 at 10 min on CYP2C19 greater than 50 µM. The CLint scaled in series [1] was found to be 24.9 mL/min/kg. Besides, the CLint scaled in series [2] came to 51.7 mL/min/kg. This molecule also yielded an IC50 at 10 min against CYP3A4 greater than 50 µM. In addition, at CYP2C9, 39.1 µM corresponded to half-maximal inhibition (IC50 at 10 min). For the same molecule, in series [3] (setting [4]), the AUC(0-inf) worked out at 1.44 µM·h, the C0 came out at 2.72 µM, the clearance worked out at 41.7 mL/min/kg and the half-life is 34.2 min. Also, the Vd in series [3] (2 mg/kg, 2 mpk intravenous injection, read-out: Vdss) is 1.54 L/kg. For the same molecule, in series [3] (setting [5]), the area under the curve AUC(0-inf) stood at 37.6 µM·h, the highest level (Cmax) was 25.6 µM, the Tmax was determined as 22.8 min and the bioavailability came to 52.2%. Further, in series [3] (setting [5]), the half-life is 55.2 min.

The IC50 is the concentration needed to halve the response being measured. As a reminder, the AUC(0-inf) is the area under the concentration-time curve extrapolated to infinity. A lower AUC(0-inf) goes with low exposure. Usually clearance stands for a measure of how efficiently the substance is removed, as volume per time. The low end stands for a low capacity for elimination, the high end for a high capacity for elimination. Broadly, the half-life is the time needed for the level to fall by half in the phase considered. Lower therefore signals rapid decline. The Cmax is the peak of the concentration-time curve. The term Tmax denotes the time from dosing to the highest level. Usually bioavailability stands for the share of a dose that reaches the circulation, judged against a reference dose that is usually intravenous. A high value points to much systemic uptake.
